Earlier results in US8912356B2, “DCC mediated coupling for halofenate manufacture” (Metabolex, Inc., priority 2013, dated 2014).

Experiments:
[1] = administration of racemic mixture
cytochrome P450 2C9 = cytochrome P450 2C9 (Homo sapiens, UniProt P11712); settings: relative to (+)-enantiomer of halofenic acid
cytochrome P450 2C9, sequence (P11712 whole entry): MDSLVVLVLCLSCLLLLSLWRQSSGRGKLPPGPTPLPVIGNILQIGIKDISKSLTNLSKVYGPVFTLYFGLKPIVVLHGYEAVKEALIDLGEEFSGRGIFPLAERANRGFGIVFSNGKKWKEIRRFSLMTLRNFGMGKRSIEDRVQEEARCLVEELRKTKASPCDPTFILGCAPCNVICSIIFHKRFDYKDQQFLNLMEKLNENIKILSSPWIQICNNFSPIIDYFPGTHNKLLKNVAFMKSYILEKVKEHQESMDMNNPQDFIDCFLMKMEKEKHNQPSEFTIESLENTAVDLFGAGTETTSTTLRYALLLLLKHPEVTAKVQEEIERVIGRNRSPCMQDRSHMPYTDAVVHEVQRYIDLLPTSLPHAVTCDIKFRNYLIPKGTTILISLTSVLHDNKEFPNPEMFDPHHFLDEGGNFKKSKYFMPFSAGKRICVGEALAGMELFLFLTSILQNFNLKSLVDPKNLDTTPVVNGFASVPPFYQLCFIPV

SMILES	plasma glucose [1]	serum uric acid [1]	triglycerides [1]	potential adverse drug-drug interactions (racemic halofenate, with Coumadin)	adverse effects (racemic mixture)	ability to inhibit cytochrome P450 2C9 compared to the (+)-enantiomer (cytochrome P450 2C9)
CC(=O)NCCOC(=O)C(Oc1cccc(C(F)(F)F)c1)c1ccc(Cl)cc1 (racemic) [halofenate, 2-acetamidoethyl (4-chlorophenyl) (3-trifluoromethylphenoxy)acetate]	lowering	lowering	lowering	difficulties controlling anticoagulation with Coumadin™	nausea, gastrointestinal ulcers, and gastrointestinal bleeding	
O=C(O)[C@H](Oc1cccc(C(F)(F)F)c1)c1ccc(Cl)cc1 [(−)-enantiomer of halofenic acid, (−)-4-chloro-α-(3-trifluoromethylphenoxy)phenylacetic acid]						about twenty-fold less active
